The results in this text go back to patent US9670204B2, “Compounds and pharmaceutical compositions thereof for the treatment of inflammatory disorders” (Galapagos NV, priority 2013, dated 2017).

Assay [1] addresses T1, hENPP2 (UniProtKB/SwissProt Q13822) (Homo sapiens (Human), UniProt Q13822). In words: fluorescent hENPP2 biochemical assay, FS-3 as substrate. Conditions: read-out: FS3-IC50. The procedure, abridged:
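IC50 values come from fluorescence gained as FS-3 is hydrolysed (ex 485, em 520 nm). The reaction, started by adding 0.75 μM FS-3 solution, runs 30 min at 30° C after a 30 min room-temperature preincubation of compound with enzyme. Buffer: Tris-HCl pH 8.0 with NaCl, KCl, MgCl2, CaCl2 and 0.1% BSA.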

The target of assay [2] is T1, hENPP2. In words: hENPP2 biochemical assay, LPC as substrate. Conditions: LPC (palmitoyl 16:0) as substrate. In a few lines: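 Human ENPP2 in 50 mM Tris-HCl pH 8.5, 500 mM NaCl, 5 mM KCl, 10 mM CaCl2, 0.1% fatty-acid-free BSA, reacted 30 min at 37 °C with LPC 16:0 (150 µM solution added 1:1). Released choline measured via choline oxidase/peroxidase/TOOS/4-aminoantipyrine quinoneimine dye at 555 nm; IC50 reported.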

As usually defined, the IC50 is the point on the concentration scale where inhibition reaches its midpoint.

With `CCc1nc2ccc(N3CCN(Cc4ncon4)CC3)cn2c1N(C)c1nc(-c2ccc(F)cc2)cs1` [Compound 41, N-(6-(4-((1,2,4-oxadiazol-3-yl)methyl)piperazin-1-yl)-2-ethylimidazo[1,2-a]pyridin-3-yl)-4-(4-fluorophenyl)-N-methylthiazol-2-amine], the values for the 50% inhibitory concentration (IC50) on hENPP2 [1] and on hENPP2 [2] were 0.01 to 100 nM and more than 1000 nM, respectively.

On to `CCc1nc2ccc(C3=CCN(C(=O)OC(C)(C)C)CC3)cn2c1N(C)c1nc(-c2ccc(F)cc2)cs1` [Compound 214, tert-butyl 4-(2-ethyl-3-((4-(4-fluorophenyl)thiazol-2-yl)(methyl)amino)imidazo[1,2-a]pyridin-6-yl)-5,6-dihydropyridine-1(2H)-carboxylate], for which the IC50 was 0.01 to 100 nM at hENPP2 [1] and more than 1000 nM at hENPP2 [2].

Take `CCc1nc2ccc(C3CCN(S(C)(=O)=O)CC3)cn2c1N(C)c1nc(-c2ccc(F)cc2F)cs1` [Compound 100, 4-(2,4-difluorophenyl)-N-(2-ethyl-6-(1-(methylsulfonyl)piperidin-4-yl)imidazo [1,2-a]pyridin-3-yl)-N-methylthiazol-2-amine]: the results for the IC50 at hENPP2 [1] and at hENPP2 [2] were 0.01 to 100 nM and more than 1000 nM, respectively.

Turning to `[2H]c1sc(N(c2c(CC)nc3ccc(C4CCN(S(C)(=O)=O)CC4)cn23)C([2H])([2H])[2H])nc1-c1ccc(F)cc1` [Compound 103, 4-(4-fluorophenyl)-N-(2-ethyl-6-(1-(methylsulfonyl)piperidin-4-yl)imidazo [1,2-a]pyridin-3-yl)-N-(d3-methyl)-(d-thiazol-2)-amine], the IC50 is 0.01 to 100 nM at hENPP2 [1] and 100 to 500 nM against hENPP2 [2].

For `CCc1nc2ccc(C3CCN(S(C)(=O)=O)CC3)cn2c1N(C)c1nc(-c2ccc(C(C)(C)C)cc2)cs1` [Compound 81, 4-(4-tert-butylphenyl)-N-(2-ethyl-6-(1-(methylsulfonyl)piperidin-4-yl)imidazo [1,2-a]pyridin-3-yl)-N-methylthiazol-2-amine], the IC50 at hENPP2 [1] was 0.01 to 100 nM; on hENPP2 [2], more than 1000 nM.

In the case of `CCc1nc2ccc(N3CCN(CC(=O)N4CC(O)C4)CC3)cn2c1N(C)c1nc(-c2ccc(F)cc2)cs1` [Compound 24, 2-(4-(2-ethyl-3-((4-(4-fluorophenyl)thiazol-2-yl)(methyl)amino)imidazo[1,2-a]pyridin-6-yl)piperazin-1-yl)-1-(3-hydroxyazetidin-1-yl)ethanone], the IC50 at hENPP2 [1] fell in the range of 0.01 to 100 nM; against hENPP2 [2], 100 to 500 nM.

For the molecule `CCc1nc2ccc(C3CCN(CC(=O)NC4CC4)CC3)cn2c1N(C)c1nc(-c2ccc(F)cc2)cs1` [Compound 194, N-cyclopropyl-2-(4-(2-ethyl-3-((4-(4-fluorophenyl)thiazol-2-yl)(methyl)amino)imidazo[1,2-a]pyridin-6-yl)piperidin-1-yl)acetamide], the IC50 was 0.01 to 100 nM at hENPP2 [1] and more than 1000 nM against hENPP2 [2].

As to `CCc1nc2ccc(N3CCN(S(=O)(=O)CCCCl)CC3)cn2c1N(C)c1nc(-c2ccc(F)cc2)cs1` [Compound 55, N-(6-(4-(3-chloropropylsulfonyl)piperazin-1-yl)-2-ethylimidazo[1,2-a]pyridin-3-yl)-4-(4-fluorophenyl)-N-methylthiazol-2-amine], the concentration for half-maximal inhibition (IC50) is 0.01 to 100 nM on hENPP2 [1] and more than 1000 nM on hENPP2 [2].

`CCc1nc2ccc(N3CCN(C(=O)OCCO)CC3)cn2c1N(C)c1nc(-c2ccc(F)cc2)cs1` [Compound 43, 2-hydroxyethyl 4-(2-ethyl-3-((4-(4-fluorophenyl)thiazol-2-yl)(methyl)amino)imidazo[1,2-a]pyridin-6-yl)piperazine-1-carboxylate]: the 50% inhibitory concentration (IC50) is 0.01 to 100 nM on hENPP2 [1] and more than 1000 nM against hENPP2 [2].

In the case of `CCc1nc2ccc(C3CCN(CC4COC(=O)O4)CC3)cn2c1N(C)c1nc(-c2ccc(F)cc2)cs1` (stereo not shown) [Compound 118, 4-((4-(2-ethyl-3-((4-(4-fluorophenyl)thiazol-2-yl)(methyl)amino)imidazo[1,2-a]pyridin-6-yl)piperidin-1-yl)methyl)-1,3-dioxolan-2-one], the IC50 is 0.01 to 100 nM on hENPP2 [1] and 100 to 500 nM at hENPP2 [2].

Turning to `CCc1nc2ccc(C3CCN(C4CN(C(C)=O)C4)CC3)cn2c1N(C)c1nc(-c2ccc(F)cc2)cs1` [Compound 134, 1-(3-(4-(2-ethyl-3-((4-(4-fluorophenyl)thiazol-2-yl)(methyl)amino)imidazo[1,2-a]pyridin-6-yl)piperidin-1-yl)azetidin-1-yl)ethanone], the IC50 on hENPP2 [1] lay in the range of 0.01 to 100 nM; at hENPP2 [2] it was 500 to 1000 nM.

As to `CCc1nc2ccc(C3CCN(C(=O)CN4CC(F)C4)CC3)cn2c1N(C)c1nc(-c2ccc(F)cc2)cs1` [Compound 133, 1-(4-(2-ethyl-3-((4-(4-fluorophenyl)thiazol-2-yl)(methyl)amino)imidazo[1,2-a]pyridin-6-yl)piperidin-1-yl)-2-(3-fluoroazetidin-1-yl)ethanone], the values for the IC50 at hENPP2 [1] and against hENPP2 [2] were 0.01 to 100 nM and 100 to 500 nM, respectively.

As to `CCc1nc2ccc(N3CCCCS3(=O)=O)cn2c1N(C)c1nc(-c2ccc(Cl)cc2)cs1` [Compound 207, 2-(2-ethyl-4-((4-(4-chlorophenyl)thiazol-2-yl)(methyl)amino)imidazo[1,2-a]pyridin-6-yl)-1-[1,2]thiazinane-1,1-dioxide], the half-inhibitory concentration (IC50) at hENPP2 [1] was 0.01 to 100 nM; against hENPP2 [2], more than 1000 nM.

For `CCc1nc2ccc(C3CCN(S(=O)(=O)CCCN)CC3)cn2c1N(C)c1nc(-c2ccc(F)cc2)cs1` [Compound 90, N-(6-(1-(3-aminopropylsulfonyl)piperidin-4-yl)-2-ethylimidazo[1,2-a]pyridin-3-yl)-4-(4-fluorophenyl)-N-methylthiazol-2-amine], the IC50 on hENPP2 [1] lay in the range of 0.01 to 100 nM; at hENPP2 [2] it was 500 to 1000 nM.

On to `CCc1nc2ccc(C3=CCN(S(C)(=O)=O)CC3)cn2c1N(C)c1nc(-c2ccc(Cl)cc2)cs1` [Compound 209, 4-(4-chlorophenyl)-N-(2-ethyl-6-(1-(methylsulfonyl)-1,2,3,6-tetrahydropyridin-4-yl)imidazo[1,2-a]pyridin-3-yl)-N-methylthiazol-2-amine], for which the IC50 on hENPP2 [1] was 0.01 to 100 nM; on hENPP2 [2] it was more than 1000 nM.

On to `CCc1nc2ccc(N3CCN(CC(=O)N(C)C)CC3)cn2c1N(C)c1nc(-c2ccc(F)cc2C#N)cs1` [Compound 168, 2-(4-(3-((4-(2-cyano-4-fluorophenyl)thiazol-2-yl)(methyl)amino)-2-ethylimidazo[1,2-a]pyridin-6-yl)piperazin-1-yl)-N,N-dimethylacetamide], for which the IC50 on hENPP2 [1] and against hENPP2 [2] was 0.01 to 100 nM in each case.

For the molecule `CCc1nc2ccc(N3CCN(S(C)(=O)=O)CC3=O)cn2c1N(C)c1nc(-c2ccc(F)cc2)cs1` [Compound 65, 1-(2-ethyl-3-((4-(4-fluorophenyl)thiazol-2-yl)(methyl)amino)imidazo[1,2-a]pyridin-6-yl)-4-(methylsulfonyl) piperazin-2-one], the half-inhibitory concentration (IC50) was 0.01 to 100 nM at hENPP2 [1] and more than 1000 nM against hENPP2 [2].

Turning to `CCc1nc2ccc(C3=CCN(S(=O)(=O)CCCOC(C)=O)CC3)cn2c1N(C)c1nc(-c2ccc(F)cc2)cs1` [Compound 74, Acetic acid 3-[4-(2-ethyl-3-{[4-(4-fluoro-phenyl)-thiazol-2-yl]-methyl-amino}-imidazo[1,2-a]pyridin-6-yl)-3,6-dihydro-2H-pyridine-1-sulfonyl]-propyl ester], the 50% inhibitory concentration (IC50) at hENPP2 [1] is 0.01 to 100 nM; on hENPP2 [2], more than 1000 nM.

For the molecule `CCc1nc2ccc(C3=CCN(S(C)(=O)=O)CC3)cn2c1N(C)c1nc(-c2ccc(F)cc2)no1` [Compound 189, N-(2-ethyl-6-(1-(methylsulfonyl)-1,2,3,6-tetrahydropyridin-4-yl)imidazo[1,2-a]pyridin-3-yl)-3-(4-fluorophenyl)-N-methyl-1,2,4-oxadiazol-5-amine], the IC50 on hENPP2 [1] is 0.01 to 100 nM; against hENPP2 [2] it was more than 1000 nM.

Consider `CN(c1nc(-c2ccc(Cl)cc2)cs1)c1c(CC(F)(F)F)nc2ccc(C3=CCN(S(C)(=O)=O)CC3)cn12` [Compound 185, 4-(4-chlorophenyl)-N-methyl-N-(6-(1-(methylsulfonyl)-1,2,3,6-tetrahydropyridin-4-yl)-2-(2,2,2-tetrahydropyridin-4-yl)-2-(2,2,2-trifluoroethyl)imidazo [1,2-a]pyridin-3-yl) thiazol-2-amine], for which the 50% inhibitory concentration (IC50) on hENPP2 [1] was 0.01 to 100 nM; against hENPP2 [2], more than 1000 nM.

Turning to `CCc1nc2ccc(C3CCN(CC(=O)N4CC(F)(F)C4)CC3)cn2c1N(C)c1nc(-c2ccc(F)cc2)cs1` [Compound 124, 1-(3,3-difluoroazetidin-1-yl)-2-(4-(2-ethyl-3-((4-(4-fluorophenyl)thiazol-2-yl)(methyl)amino)imidazo[1,2-a]pyridin-6-yl)piperidin-1-yl)ethanone], the IC50 on hENPP2 [1] is 0.01 to 100 nM; at hENPP2 [2], more than 1000 nM.

For the molecule `CCc1nc2ccc(N3CCN(C(=O)C4CCNC4)CC3)cn2c1N(C)c1nc(-c2ccc(F)cc2)cs1` (stereo not shown) [Compound 47, (4-(2-ethyl-3-((4-(4-fluorophenyl)thiazol-2-yl)(methyl)amino)imidazo[1,2-a]pyridin-6-yl)piperazin-1-yl)(pyrrolidin-3-yl)methanone], the IC50 on hENPP2 [1] is 0.01 to 100 nM; at hENPP2 [2], more than 1000 nM.

Take `CCc1nc2ccc(N3CCN(C(=O)C4CC4)CC3)cn2c1N(C)c1nc(-c2ccc(F)cc2)cs1` [Compound 227, Cyclopropyl-[4-(2-ethyl-3-{[4-(4-fluoro-phenyl)-thiazol-2-yl]-methyl-amino}-imidazo[1,2-a]pyridin-6-yl)-piperazin-1-yl]-methanone]: the half-maximal inhibitory concentration (IC50) at hENPP2 [1] was 0.01 to 100 nM; against hENPP2 [2], more than 1000 nM.
